Assay results: patent publication CN105367624A, “一种LLVV-Hemorphin-6肽的制备方法和用途” (Individual, priority 2015, dated 2016)
Where no end group is shown, it is not given here.

System: 4T1细胞
Experiment: In vitro antitumor evaluation: MTT cell viability assay in 4T1 cells
Type: cell-based
Settings: 48 h

Sequence: LLVVYPWTQR [LLVV-Hemorphin-6肽]
- 细胞抑制效果 (cell inhibition effect), peptide alone at high concentration (peptide 10 μM): 存在一定的细胞抑制效果
- 细胞抑制率 (cell inhibition rate), peptide alone (peptide 0.0001-10 μM): 较低
